Experimental data published in patent US20220401514A1, “ANTIMICROBIAL, BACTERIOPHAGE-DERIVED POLYPEPTIDES AND THEIR USE AGAINST GRAM-NEGATIVE AND ACID-FAST BACTERIA” (CONTRAFECT CORPORATION, priority 2019, published 2022).
Values after ≈ are worked out from the molar mass of the structure shown.

Tests used:
[1] = test system: Mycobacterium tuberculosis strains; assay: microbe, parasite or virus in culture
Method: MIC values for various Chp peptides were determined using the CLSI method for broth microdilution in 96-well microtiter format.
Next, MIC values for various Chp peptides were determined using the CLSI method above for broth microdilution in 96-well microtiter format for two different Mycobacterium tuberculosis strains. The MIC was determined as explained above for the NTM strains.

[2] = test system: Salmonella typhimurium; assay: MIC against Salmonella typhimurium; assay type: cell-based; conditions: Salmonella typhimurium
[3] = test system: P. aeruginosa strain CFS-1292; assay: LIVE/DEAD stain microscopy in 100% human serum; assay type: cell-based, Pseudomonas aeruginosa; conditions: 15 minutes, 10 μg/mL
Text: Samples were visualized by BF and fluorescence microscopy (10 ms exposure). […] was used to label live cells, and PI was used to label damaged and dead cells.

[4] = test system: carbapenamase-producing Enterobacteriaceae isolates; assay: MIC against CDC Carbapenamase Enterobacteriaceae panel (n = 53); assay type: cell-based
Text: Additionally, a third panel of 53 carbapenamase-producing Enterobacteriaceae isolates were selected to represent a diversity of species and carbapenemases. See wwwn.cdc.gov/ARIsolateBank/Panel/PanelDetail?ID=8.

[5] = test system: Gram-negative with varying susceptibility to imipenem and relebactam; assay: MIC against CDC Imipenem/Relebactam panel (n = 28); assay type: cell-based
Method: (§1) MIC values were determined using the methodology described above, i.e., the standard broth microdilution reference method defined by CLSI.
(§2) See wwwn.cdc.gov/ARIsolateBank/Panel/PanelDetail?ID=10.

[6] = test system: isolates identified as having novel antibiotic resistance; assay: MIC against CDC novel antibiotic resistance panel (n = 11); assay type: cell-based
Method: as §1, §2

[7] = test system: P. aeruginosa strain PA20 persister cells; assay: Activity against persister cells, P. aeruginosa; assay type: cell-based, Pseudomonas aeruginosa
[8] = test system: outer membrane of Gram-negative bacteria (including P. aeruginosa, E. cloacae, K. pneumoniae, E. coli, and A. baumannii); assay: Outer membrane permeabilization, NPN uptake; assay type: cell-based
Text: NPN is largely excluded by intact Gram-negative bacteria, but enhanced uptake of NPN may occur in cells having a damaged or permeable outer membrane. NPN fluoresces strongly under hydrophobic conditions and weakly under aqueous conditions. Therefore, NPN's interaction with membrane phospholipids in the bacterial envelope increases its fluorescence signal and can be used as an indication of a compromised bacterial membrane and a measurement of the outer membrane permeability.

[9] = test system: inner membrane of Gram-negative bacteria (including P. aeruginosa, E. cloacae, K. pneumoniae, E. coli, and A. baumannii); assay: Inner membrane depolarization, diSC3-5 release; assay type: cell-based
Text: The mechanism of action of Chp peptides disclosed herein can also be evaluated by measuring the depolarization of the inner membrane of Gram-negative bacteria. […] Upon permeabilization of the outer membrane, the ability of Chp peptides to induce dissipation of the cytoplasmic membrane electrical potential gradient (Δψ) may be examined, for example by following the release of 3,3′-dipropylthiadicarbocyanine (diSC3-5) as a function of time compared to an untreated control. DiSC3-5 is a fluorophore that is a caged cation concentrated within the bacterial inner membrane and under the influence of the bacterial membrane electrical potential gradient. At high concentrations, diSC3-5 self-quenches, leading to the suppression of fluorescence. When the inner membrane deteriorates or becomes leaky for cations, including protons, the A it dissipates, which leads to a release of diSC3-5 and a subsequent increase in fluorescence.

[10] = test system: Gram-negative bacteria (including P. aeruginosa, E. cloacae, K. pneumoniae, E. coli, and A. baumannii); assay: Propidium iodide uptake; assay type: cell-based
Text: The damage caused by the Chp peptides disclosed herein to the outer and inner membranes of Gram-negative bacteria can also be assessed with impermeable dyes such as propidium iodide. […] AGENTS CHEMO. 2012; 56:5698-5708.

[11] = Carbapenamase Enterobacteriaceae panel
[12] = novel antibiotic resistance panel

NC[C@H]1O[C@H](O[C@H]2[C@H](O)[C@@H](O[C@H]3O[C@H](CO)[C@@H](O)[C@H](N)[C@H]3O)[C@H](N)C[C@@H]2N)[C@H](N)C[C@@H]1O [tobramycin, reference compound]
MIC ([1]; ATCC25177): 4 µg/mL (≈ 8.56 µM)
MIC ([1]; ATCC35817): 4 µg/mL (≈ 8.56 µM)

MRLKMARRRYRLPRRRSRRLFSRTALRMHPRNRLRRIMRGGIRF [Chp2]
MIC [2]: 2 µg/mL
killing of P. aeruginosa, Live/Dead Cell Viability Kit [3]: reduction of live bacteria
MIC ([4]; Bank No. 0112, Klebsiella pneumoniae): 1 µg/mL
MIC ([4]; Bank No. 0113, Klebsiella pneumoniae): 1 µg/mL
MIC ([4]; Bank No. 0114, Escherichia coli): 0.5 µg/mL
MIC ([4]; Bank No. 0115, Klebsiella pneumoniae): 1 µg/mL
MIC ([4]; Bank No. 0116, Citrobacter freundii): 0.5 µg/mL
MIC ([4]; Bank No. 0117, Klebsiella pneumoniae): 0.5 µg/mL
MIC ([4]; Bank No. 0118, Escherichia coli): 0.5 µg/mL
MIC ([4]; Bank No. 0119, Escherichia coli): 0.5 µg/mL
MIC ([4]; Bank No. 0120, Klebsiella pneumoniae): 0.25 µg/mL
MIC ([4]; Bank No. 0121, Serratia marcescens): > 8 µg/mL
MIC ([4]; Bank No. 0122, Serratia marcescens): > 8 µg/mL
MIC ([4]; Bank No. 0123, Serratia marcescens): > 8 µg/mL
MIC ([4]; Bank No. 0124, Serratia marcescens): > 8 µg/mL
MIC ([4]; Bank No. 0125, Klebsiella pneumoniae): 1 µg/mL
MIC ([4]; Bank No. 0126, Klebsiella pneumoniae): 1 µg/mL
MIC ([4]; Bank No. 0127, Salmonella Senftenberg): 0.5 µg/mL
MIC ([4]; Bank No. 0128, Escherichia coli): 0.5 µg/mL
MIC ([4]; Bank No. 0129, Klebsiella pneumoniae): 1 µg/mL
MIC ([4]; Bank No. 0130, Serratia marcescens): > 8 µg/mL
MIC ([4]; Bank No. 0131, Serratia marcescens): > 8 µg/mL
MIC ([4]; Bank No. 0132, Enterobacter cloacae group): 1 µg/mL
MIC ([4]; Bank No. 0134, Raoultella ornithinolytica): 1 µg/mL
MIC ([4]; Bank No. 0135, Klebsiella pneumoniae): 0.5 µg/mL
MIC ([4]; Bank No. 0136, Enterobacter cloacae): 0.5 µg/mL
MIC ([4]; Bank No. 0137, Escherichia coli): 0.25 µg/mL
MIC ([4]; Bank No. 0138, Klebsiella pneumoniae): 0.5 µg/mL
MIC ([4]; Bank No. 0139, Klebsiella pneumoniae): 1 µg/mL
MIC ([4]; Bank No. 0140, Klebsiella pneumoniae): 0.5 µg/mL
MIC ([4]; Bank No. 0141, Klebsiella pneumoniae): 0.5 µg/mL
MIC ([4]; Bank No. 0142, Klebsiella pneumoniae): 0.5 µg/mL
MIC ([4]; Bank No. 0143, Klebsiella pneumoniae): 0.5 µg/mL
MIC ([4]; Bank No. 0144, Kluyvera ascorbata): 0.25 µg/mL
MIC ([4]; Bank No. 0145, Klebsiella pneumoniae): 1 µg/mL
MIC ([4]; Bank No. 0146, Klebsiella pneumoniae): 1 µg/mL
MIC ([4]; Bank No. 0147, Klebsiella oxytoca): 1 µg/mL
MIC ([4]; Bank No. 0148, Klebsiella pneumoniae): 1 µg/mL
MIC ([4]; Bank No. 0149, Escherichia coli): 0.5 µg/mL
MIC ([4]; Bank No. 0150, Escherichia coli): 0.25 µg/mL
MIC ([4]; Bank No. 0151, Escherichia coli): 0.25 µg/mL
MIC ([4]; Bank No. 0152, Klebsiella pneumoniae): 1 µg/mL
MIC ([4]; Bank No. 0153, Klebsiella pneumoniae): 0.5 µg/mL
MIC ([4]; Bank No. 0154, Enterobacter cloacae): 0.25 µg/mL
MIC ([4]; Bank No. 0155, Proteus mirabilis): 0.25 µg/mL
MIC ([4]; Bank No. 0156, Proteus mirabilis): 0.5 µg/mL
MIC ([4]; Bank No. 0157, Citrobacter freundii): 0.5 µg/mL
MIC ([4]; Bank No. 0158, Klebsiella pneumoniae): 0.5 µg/mL
MIC ([4]; Bank No. 0159, Proteus mirabilis): 0.25 µg/mL
MIC ([4]; Bank No. 0160, Klebsiella pneumoniae): 1 µg/mL
MIC ([4]; Bank No. 0161, Enterbacter aerogenes): 2 µg/mL
MIC ([4]; Bank No. 0162, Escherichia coli): 0.25 µg/mL
MIC ([4]; Bank No. 0163, Enterobacter cloacae): 0.25 µg/mL
MIC ([4]; Bank No. 0164, Enterobacter cloacae complex): 1 µg/mL
MIC50 [4, 11]: 0.5 µg/mL
MIC90 [4, 11]: 1 µg/mL
MIC ([5]; Bank No. 0501, Enterobacter cloacae): 0.5 µg/mL
MIC ([5]; Bank No. 0502, Enterobacter cloacae): 0.5 µg/mL
MIC ([5]; Bank No. 0504, Klebsiella pneumoniae): 0.5 µg/mL
MIC ([5]; Bank No. 0505, Klebsiella pneumoniae): 1 µg/mL
MIC ([5]; Bank No. 0506, Klebsiella pneumoniae): 1 µg/mL
MIC ([5]; Bank No. 0507, Klebsiella pneumoniae): 0.5 µg/mL
MIC ([5]; Bank No. 0508, Pseudomonas aeruginosa): 1 µg/mL
MIC ([5]; Bank No. 0509, Pseudomonas aeruginosa): 1 µg/mL
MIC ([5]; Bank No. 0510, Pseudomonas aeruginosa): 0.5 µg/mL
MIC ([5]; Bank No. 0511, Pseudomonas aeruginosa): 0.5 µg/mL
MIC ([5]; Bank No. 0512, Pseudomonas aeruginosa): 1 µg/mL
MIC ([5]; Bank No. 0513, Pseudomonas aeruginosa): 0.5 µg/mL
MIC ([5]; Bank No. 0514, Pseudomonas aeruginosa): 1 µg/mL
MIC ([5]; Bank No. 0515, Pseudomonas aeruginosa): 0.5 µg/mL
MIC ([5]; Bank No. 0516, Pseudomonas aeruginosa): 0.5 µg/mL
MIC ([5]; Bank No. 0517, Serratia marcescens): > 8 µg/mL
MIC ([5]; Bank No. 0518, Pseudomonas aeruginosa): 1 µg/mL
MIC ([5]; Bank No. 0519, Morganella morganii): ng
MIC ([5]; Bank No. 0520, Serratia marcescens): > 8 µg/mL
MIC ([5]; Bank No. 0521, Serratia marcescens): > 8 µg/mL
MIC ([5]; Bank No. 0522, Klebsiella pneumoniae): 0.5 µg/mL
MIC ([5]; Bank No. 0523, Klebsiella pneumoniae): 0.5 µg/mL
MIC ([5]; Bank No. 0524, Klebsiella pneumoniae): 1 µg/mL
MIC ([5]; Bank No. 0525, Klebsiella pneumoniae): 1 µg/mL
MIC ([5]; Bank No. 0526, Pseudomonas aeruginosa): 2 µg/mL
MIC ([5]; Bank No. 0527, Pseudomonas aeruginosa): 1 µg/mL
MIC ([5]; Bank No. 0528, Pseudomonas aeruginosa): 1 µg/mL
MIC ([5]; Bank No. 0529, Pseudomonas aeruginosa): 0.5 µg/mL
MIC50 ([5]; Imipenem/Relebactam panel): 0.5 µg/mL
MIC90 ([5]; Imipenem/Relebactam panel): 1 µg/mL
MIC ([6]; Bank No. 0346, Escherichia coli): 0.25 µg/mL
MIC ([6]; Bank No. 0347, Klebsiella pneumoniae): 0.5 µg/mL
MIC ([6]; Bank No. 0348, Escherichia coli): 0.5 µg/mL
MIC ([6]; Bank No. 0349, Escherichia coli): 1 µg/mL
MIC ([6]; Bank No. 0350, Escherichia coli): 1 µg/mL
MIC ([6]; Bank No. 0493, Escherichia coli): 0.5 µg/mL
MIC ([6]; Bank No. 0494, Escherichia coli): 1 µg/mL
MIC ([6]; Bank No. 0495, Escherichia coli): 1 µg/mL
MIC ([6]; Bank No. 0497, Klebsiella pneumoniae): 0.5 µg/mL
MIC ([6]; Bank No. 0538, Escherichia coli): 1 µg/mL
MIC ([6]; Bank No. 0637, Citrobacter freundi): 1 µg/mL
MIC50 [6, 12]: 0.5 µg/mL
MIC90 [6, 12]: 1 µg/mL
Viable persister count after treatment (log10 CFU/mL) ([7]; P. aeruginosa PA20 persister cells, Run #1, limit of detection 2-log10 CFU/mL): 2.7 Log10 (CFU/mL)
Viable persister count after treatment (log10 CFU/mL) ([7]; P. aeruginosa PA20 persister cells, Run #2, limit of detection 2-log10 CFU/mL): 2.3 Log10 (CFU/mL)
Viable persister count after treatment (log10 CFU/mL) ([7]; P. aeruginosa PA20 persister cells, Run #3, limit of detection 2-log10 CFU/mL): 2 Log10 (CFU/mL)
Viable persister count after treatment (log10 CFU/mL) ([7]; P. aeruginosa PA20 persister cells, average of 3 runs): 2.3 Log10 (CFU/mL)
Delta Log ([7]; P. aeruginosa PA20 persister cells, log10 CFU/mL reduction as compared to buffer): 2.1
log10 CFU/mL reduction as compared to buffer ([7]; P. aeruginosa persister cells, 1 hour at 37° C.): 2.1 log10 CFU/mL
outer membrane permeability (NPN uptake) [8]: dose-dependent increase in outer membrane permeability, equivalent to that of colistin, LL37, and melittin
membrane depolarization (diSC3-5) [9]: dose-dependent increase in membrane depolarization, equivalent or superior to that of melittin, LL37, RI-18, and PMBN
cell envelop permeability (propidium iodide uptake) [10]: dose-dependent increase in cell envelop permeability was equivalent to that of colistin, LL37, and melittin
